Like-named read-outs stand apart in the source and are kept apart here. *1 amine or outer side, *2 acyl side, *3 side chain or, on linkers, in order; H or OH if unused. Where a SMILES comes first, the peptide text is derived from it. Bridges are numbered along the chain shown (N, C = ends). [ ]: non-standard residue; d: D form. N(4-F-Bzl)Gly = O=C(O)CNCc1ccc(F)cc1; X1 = O=C(CCC[*:2])[*:1]
Experiments:
[1] = Trial 000015 Part 3: pharmacokinetics, single intranasal and single intravenous cross-over; conditions: female, human, plasma, other: intranasal; for bioavailability: 400 μg i.n. vs 20 μg i.v.
Protocol: Open-label cross-over single i.n. and single i.v. dose in 6 healthy women. The doses investigated were 20 μg as an i.v. infusion over 25 minutes, and 400 μg as a single i.n. dose.
(§1) The intranasal dose was 400 μg (4×140 μl, the same as the highest dose in Part 1), the i.v. dose was 20 μg infused in 2 mL over 25 minutes.
The intravenous dose and infusion rate were determined from the intranasal pharmacokinetic data in Part 1.

[2] = Trial 000015 Part 1: pharmacokinetics after single intranasal administration
Protocol: (§2) The first clinical trial in human, Trial 000015, was a double-blind, placebo-controlled, single dose, within dose panel randomised, sequential dose escalating study. The trial was divided into three parts:
(§3) Part 1. Ascending single i.n. doses. There were 7 dose panels with 8 healthy women in each dose panel (6 active, 2 placebo). The doses investigated were 5 μg, 15 μg, 50 μg, 100 μg, 200 μg, 300 μg, and 400 μg.
(§4) Seven dose levels were investigated: 5, 15, 50, 100, 200, 300, and 400 μg. Each of the doses were administered as a nasal spray based on one or multiple puffs per nostril.
FE 202767 was provided as an isotonic citrate/phosphate buffered solution of pH 5.5 in water in vials containing an extractable volume of 0.9 mL (Table 2). The concentration of FE 202767 was 0.7 mg/mL, to be used appropriately diluted with buffer or, for Part 3, NaCl for injection. The buffer used for FE 202767 was used as placebo in this study.

[3] = tested on: healthy women;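 on intensity of all TEAEs: adverse events in healthy women given intranasal doses every 3 h over 45 h (16 doses per panel), each panel with 6 active and 2 placebo subjects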;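 on withdrawal due to nausea: adverse events in healthy women given intranasal doses every 3 h over 45 h (16 doses per panel), each panel with 6 active and 2 placebo subjects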
Protocol: Part 2. Ascending multiple i.n. doses. There were 3 dose panels with 8 healthy women in each dose panel (6 active, 2 placebo). The dosing schedule was every 3 hours for 45 hours, i.e. 16 doses in all. The doses investigated were 50 μg, 200 μg, and 400 μg.
Three dose levels were investigated: the first dose was 50 μg, the second dose was 200 μg (intermediate between the first dose and the maximal tolerated dose in Part 1), and the highest dose was 400 μg (the maximal dose in Part 1).

[4] = tested on: early postpartum women; conditions: in vivo
Protocol: Healthy women received 5 or 20 μg merotocin i.v. shortly after delivery (Part A) or 20 μg merotocin i.v. when lactation was established (Part B). Milk was expressed by pumping at 15 minutes, 3 hours, 6 hours, 9 hours, 12 hours, 18 hours and 18-24 hours after start of infusion and analysed for merotocin and metabolites.

[5] = tested on: healthy women; conditions: in vivo;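 on intensity of all TEAEs: adverse events in healthy women given intranasal doses every 3 h over 45 h (16 doses per panel), each panel with 6 active and 2 placebo subjects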;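 on withdrawal due to nausea: adverse events in healthy women given intranasal doses every 3 h over 45 h (16 doses per panel), each panel with 6 active and 2 placebo subjects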
Protocol: as §2, §3, §4
Part 3. Open-label cross-over single i.n. and single i.v. dose in 6 healthy women. The doses investigated were 20 μg as an i.v. infusion over 25 minutes, and 400 μg as a single i.n. dose.
as §1

[6] = multiple doses 50 μg i.n., N = 6
[7] = multiple doses 200 μg i.n., N = 6
[8] = multiple doses 400 μg i.n., N = 6

## CC[C@H](C)[C@@H]1NC(=O)[C@H](Cc2ccc(O)cc2)NC(=O)CCCSC[C@@H](C(=O)N(CC(=O)N[C@@H](CC(C)C)C(=O)NCC(N)=O)Cc2ccc(F)cc2)NC(=O)[C@H](CC(N)=O)NC(=O)[C@H](CCC(N)=O)NC1=O [merotocin, Glycinamide, N-(4-mercapto-1-oxobutyl)-L-tyrosyl-L-isoleucyl-Lglutaminyl-L-asparaginyl-L-cysteinyl-N-[(4-fluorophenyl)methyl]glycyl-L-leucyl-, cyclic (1→5)-thioether] (YIQNC[N(4-F-Bzl)Gly]LG-NH2; linker N-5 via X1)
[1]; 400 ug, Cmax Geom. mean (% CV), cross-over, 400 μg i.n. single dose, N = 6
  Cmax: 0.151 ng/mL
[1]; 400 ug, Cmax Median, cross-over, 400 μg i.n. single dose, N = 6
  Cmax: 0.156 ng/mL
[1]; 400 μg, F Median, N = 6
  bioavailability: 3.4%
[1]; 400 μg, bioavailability (range)
  bioavailability: 2.2 to 6.2%
[1]; 400 μg, mean Cmax, single dose i.n. administration, highest dose group
  Cmax: 0.151 ng/mL
[2]; female, human, plasma, inhaled or intranasal, 100 ug, Cmax Geom. mean (% CV), single i.n. dose 100 μg, N = 6
  Cmax: 0.0379 ng/mL
[2]; female, human, plasma, inhaled or intranasal, 100 ug, Cmax Median, single i.n. dose 100 μg, N = 6
  Cmax: 0.0322 ng/mL
[2]; female, human, plasma, inhaled or intranasal, 200 ug, AUCt Geom. mean (% CV), single i.n. dose 200 μg, N = 6
  AUC(0-t): 0.0357 ng·h/mL
[2]; female, human, plasma, inhaled or intranasal, 200 ug, AUCt Median, single i.n. dose 200 μg, N = 6
  AUC(0-t): 0.0525 ng·h/mL
[2]; female, human, plasma, inhaled or intranasal, 200 ug, Cmax Geom. mean (% CV), single i.n. dose 200 μg, N = 6
  Cmax: 0.0841 ng/mL
[2]; female, human, plasma, inhaled or intranasal, 200 ug, Cmax Median, single i.n. dose 200 μg, N = 6
  Cmax: 0.0999 ng/mL
[2]; female, human, plasma, inhaled or intranasal, 300 ug, AUCt Geom. mean (% CV), single i.n. dose 300 μg, N = 6
  AUC(0-t): 0.0778 ng·h/mL
[2]; female, human, plasma, inhaled or intranasal, 300 ug, AUCt Median, single i.n. dose 300 μg, N = 6
  AUC(0-t): 0.0943 ng·h/mL
[2]; female, human, plasma, inhaled or intranasal, 300 ug, Cmax Geom. mean (% CV), single i.n. dose 300 μg, N = 6
  Cmax: 0.143 ng/mL
[2]; female, human, plasma, inhaled or intranasal, 300 ug, Cmax Median, single i.n. dose 300 μg, N = 6
  Cmax: 0.148 ng/mL
[2]; female, human, plasma, inhaled or intranasal, 300 ug, tmax Mean (SD), single i.n. dose 300 μg, N = 6
  Tmax: 12 min
[2]; female, human, plasma, inhaled or intranasal, 400 ug, AUCt Geom. mean (% CV), single i.n. dose 400 μg, N = 6
  AUC(0-t): 0.0886 ng·h/mL
[2]; female, human, plasma, inhaled or intranasal, 400 ug, AUCt Median, single i.n. dose 400 μg, N = 6
  AUC(0-t): 0.119 ng·h/mL
[2]; female, human, plasma, inhaled or intranasal, 400 ug, Cmax Median, single i.n. dose 400 μg, N = 6
  Cmax: 0.199 ng/mL
[2]; female, human, plasma, inhaled or intranasal, 400 ug, tmax Mean (SD), single i.n. dose 400 μg, N = 6
  Tmax: 13.2 min
[2]; female, human, plasma, other: intranasal, tmax, all i.n. dose levels, single or multiple administration
  Tmax: 12 to 15 min
[2]; female, human, plasma, other: intranasal, tmax, single i.n. dose, all dose groups
  Tmax: 12 to 15 min
[2]; female, human, plasma, other: intranasal, t½, after i.n. administration, Trial 000015 key results
  half-life: ~30 min
[2]; single i.n. doses
  increase of exposure (AUC and Cmax) with dose: close to dose proportional manner
[3]; 400 μg group, multiple doses
  withdrawal due to nausea: One subject was withdrawn
[3]; 200 and 400 μg groups, multiple doses
  dry mouth: subjects reporting: 5 subjects
[3]; after multiple dose administrations
  intensity of all TEAEs: mild
[3]; all treatment groups, multiple doses
  headache: subjects reporting: 4 subjects
[3]; [6]
  Any AE: number of AEs, E: 3
  Any AE: subjects with AE, n (%): 3 (50%)
  Breast tenderness: number of AEs, E: 1
  Breast tenderness: subjects with AE, n (%): 1 (17%)
  Headache: number of AEs, E: 2
  Headache: subjects with AE, n (%): 2 (33%)
[3]; [7]
  Any AE: number of AEs, E: 5
  Any AE: subjects with AE, n (%): 4 (67%)
  Dry mouth: number of AEs, E: 3
  Dry mouth: subjects with AE, n (%): 3 (50%)
  Flushing: number of AEs, E: 1
  Flushing: subjects with AE, n (%): 1 (17%)
  Headache: number of AEs, E: 1
  Headache: subjects with AE, n (%): 1 (17%)
[3]; [8]
  Any AE: number of AEs, E: 6
  Any AE: subjects with AE, n (%): 3 (50%)
  Dry mouth: number of AEs, E: 2
  Dry mouth: subjects with AE, n (%): 2 (33%)
  Flushing: number of AEs, E: 1
  Flushing: subjects with AE, n (%): 1 (17%)
  Headache: number of AEs, E: 2
  Headache: subjects with AE, n (%): 1 (17%)
  Nausea: number of AEs, E: 1
  Nausea: subjects with AE, n (%): 1 (17%)
[3]; multiple doses, 24 subjects
  number of TEAEs reported: 14
[4]
  Any AE: number of AEs, E: 16
  Any AE: subjects with AE, n (%): 8 (44)
  Back pain: number of AEs, E: 1
  Back pain: subjects with AE, n (%): 1 (6)
  Breast engorgement: number of AEs, E: 3
  Breast engorgement: subjects with AE, n (%): 3 (17)
  Headache: number of AEs, E: 3
  Headache: subjects with AE, n (%): 2 (11)
  Lactation puerperal increased: number of AEs, E: 1
  Lactation puerperal increased: subjects with AE, n (%): 1 (6)
  Muscle spasms: number of AEs, E: 1
  Muscle spasms: subjects with AE, n (%): 1 (6)
  Uterine spasm: number of AEs, E: 7
  Uterine spasm: subjects with AE, n (%): 6 (33)
  safety (key results): No safety
[4]; iv
  severe or serious AE: No severe or serious AE occurred
[5]
  Dry mouth: subjects reporting: 3 subjects
  intensity of all adverse events: mild
  safety (key results): No safety
